Data reported in patent publication US20180110757A1, “METHODS OF TREATING PRURITIS AND PAIN” (The Regents of the University of California, priority 2016, published 2018).

Key:
S1PR3 = molecular target: T1, S1PR3 (Mus musculus, UniProt Q9Z0U9); experiment: Ratiometric calcium imaging in cultured DRG neurons; assay type: cell-based, mice; details: for calcium responses in cultured DRG neurons: S1P 100 nM, CYM 100 μM
T1 construct: attenuates S1P-evoked calcium responses in wild-type DRG sensory neurons; endogenous in cells; host or cells: cultured mouse dorsal root ganglion (DRG) neurons, wild-type
T1 sequence (Q9Z0U9 whole entry): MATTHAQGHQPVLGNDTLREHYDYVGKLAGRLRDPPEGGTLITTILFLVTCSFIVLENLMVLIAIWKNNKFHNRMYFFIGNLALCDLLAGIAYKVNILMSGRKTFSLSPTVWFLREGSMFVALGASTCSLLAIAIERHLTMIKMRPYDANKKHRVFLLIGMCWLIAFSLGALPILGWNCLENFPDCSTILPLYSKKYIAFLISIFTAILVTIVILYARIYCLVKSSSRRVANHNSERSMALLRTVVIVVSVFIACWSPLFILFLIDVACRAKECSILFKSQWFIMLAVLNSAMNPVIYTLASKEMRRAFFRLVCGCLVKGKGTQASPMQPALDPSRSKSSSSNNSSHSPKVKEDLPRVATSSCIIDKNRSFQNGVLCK
Method: FIG. 1A-1G. A. Graphical model illustrating the role of S1PR3-evoked itch in somatosensory neurons of the dorsal root ganglion (DRG). […] C. […] D. Venn diagram displaying overlap of S1P responsive neurons from ratiometric calcium imaging with known pruritogens and algogens in cultured DRG neurons. Pruritogens: HIS=histamine, CQ=chloroquine. Algogens: CAP=capsaicin, AITC=allyl-isothiocyanate. Data were collected from n>4,000 neurons. E. Scratching behavioral data for mice injected with 200 nM S1P or 0.1% methanol-PBS vehicle intradermally into the rostral back. WT=wild-type, A1 −/−=Trpa1-deficient knockout mice. Scratching behaviors were recorded 30 minutes post injection. […] G. S1pr3 transcript levels were quantified using qRT-PCR from skin of mice treated with vitamin D or ethanol control for 7 days to induce an atopic dermatitis-like condition. Data were normalized to Gapdh housekeeping gene. For all data, one way ANOVA was performed with a Tukey-Kramer post hoc statistical test. Tukey-Kramer values are reported and only p<0.05 were considered significant, ***=p<0.001. n.s.=not significant.

mice = experiment: Scratching behavior after intradermal injection into the rostral back; assay type: in vivo
[1] = system: KCNQ2/3 potassium channels (M channels); experiment: Excitability of mechanical nociceptor DRG neurons in vitro; assay type: cell-based; details: via S1PR3, through closure of KCNQ2/3 potassium channels
Text: In situ RNA hybridization studies and protein localization studies indicate that S1pr3 is expressed in thermal nociceptors and mechanical nociceptors, as well as nociceptive free nerve endings in skin.

wild-type mice [2] = experiment: Mechanical pain sensitivity (von Frey, tactile stimuli) in healthy wild-type mice; assay type: in vivo
Text: Likewise, in S1pr3^−/− mice, radiant heat withdrawal latencies were normal.
Pharmacological manipulation of S1PR3 or reduction of S1P levels lessens mechanical pain sensation in wild-type mice without affecting innocuous touch.
Blockade of S1PR1 with the selective antagonist W146 has no effect on mechanosensitivity. Tonic levels of S1P in the skin are responsible for S1PR3-mediated mechanical pain sensation.

wild-type mice [3] = experiment: Complete Freund's Adjuvant (CFA) model of chronic inflammation; assay type: in vivo
Text: S1PR3 knockout mice treated with CFA fail to develop thermal hypersensitivity and display normal mechanical sensitivity due to their baseline defect in mechanical pain sensation. They also display lessened paw swelling, possibly due to decreased neurogenic inflammation. […] Loss of S1P production with acute SKI II injection into the CFA-treated paw also reverses CFA thermal hypersensitivity.

[4] = S1PR3-deficient (S1PR3 −/−) mice
[5] = wildtype mice (WT), compared to physiological saline control
[6] = wild-type mice, intradermal administration
[7] = wild-type mice, delivered to the hindpaw after induction of CFA pain

## O=C(c1cc(C2CC2)on1)N(C1CCCCC1)C1CCCCC1 [CYM 5541]
S1PR3; [4]
  calcium responses in cultured DRG neurons: lack calcium responses
S1PR3; [5]
  calcium responses in cultured DRG neurons: robust responses

## CCCCCCCCCCCCC/C=C/[C@@H](O)[C@@H](N)COP(=O)(O)O [S1P, Sphingosine-1-phosphate]
mice; S1PR3-deficient mice (S1PR3 −/−), 200 nM intradermally, 30 minutes post injection
  scratching behavior vs. vehicle: no difference
mice; mice (FIG. 1E), S1PR3-dependent opening of TRPA1
  scratching behavior: leads to scratching behavior in mice
[1]
  excitability of mechanical nociceptor DRG neurons: increases the excitability
S1PR3; [4]
  calcium responses in cultured DRG neurons: lack calcium responses
S1PR3; [5]
  calcium responses in cultured DRG neurons: robust responses

## Oc1ccc(Nc2nc(-c3ccc(Cl)cc3)cs2)cc1 [SKI II, 2-(p-hydroxyanilino)-4-(p-chlorophenyl)thiazole]
wild-type mice [2]; injection of 50 μM
  mechanical pain sensitivity after block of local production of S1P: mechanical pain sensitivity was dependent on local S1P in the skin
wild-type mice [3]; acute injection into the CFA-treated paw
  CFA thermal hypersensitivity: reverses

## CC(C)(C)C(=O)C(=Nc1ccc(Cl)cc1)NNc1ccc(Cl)cc1 [TY 52156, N-(4-Chlorophenyl)-3,3-dimethyl-2-oxobutanimidic 2-(4-chlorophenyl) hydrazide]
wild-type mice [2]; [6]
  mechanosensitivity: promotes mechanical hyposensitivity
  responsiveness to noxious tactile stimuli: decreases responsiveness
S1PR3; wild-type DRG sensory neurons
  effect on S1P-evoked calcium responses: attenuates
  effect on the effects of the allosteric agonist CYM (calcium imaging): does not block
wild-type mice [3]; [7]
  mechanical thresholds: to pre-CFA, baseline levels
  thermal thresholds: to pre-CFA, baseline levels

## CCCCCCc1cccc(NC(=O)[C@H](N)CCP(=O)(O)O)c1 [W146]
wild-type mice [2]; [6]
  mechanosensitivity: no effect
